Experimental data taken from the supplement of paper PMC9663587.

Tests used:
THZ531 = compound: CN(C)C/C=C/C(=O)Nc1ccc(C(=O)N2CCC[C@@H](Nc3ncc(Cl)c(-c4c[nH]c5ccccc45)n3)C2)cc1 [THZ531]; test: increase in dead-cell fraction, 72 h; higher = more death;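 further: breast cancer cell lines in 384-well plates, stained with Hoechst plus LIVE/DEAD far red dye and imaged, cells above an LDR intensity threshold counted dead, Hoechst-negative corpses included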
Neratinib/HKI272 = compound: CCOc1cc2ncc(C#N)c(Nc3ccc(OCc4ccccn4)c(Cl)c3)c2cc1NC(=O)/C=C/CN(C)C [Neratinib/HKI272]; test: as above
[1] = compound: CCc1cnn2c(NCc3ccc[n+]([O-])c3)cc(N3CCCC[C@H]3CCO)nc12; test: as above
THZ1 = compound: CN(C)C/C=C/C(=O)Nc1ccc(C(=O)Nc2cccc(Nc3ncc(Cl)c(-c4c[nH]c5ccccc45)n3)c2)cc1 [THZ1]; test: as above
LEE011/Ribociclib = compound: CN(C)C(=O)c1cc2cnc(Nc3ccc(N4CCNCC4)cn3)nc2n1C1CCCC1 [LEE011/Ribociclib]; test: as above
BSJ-03-123 = compound: CC(=O)c1c(C)c2cnc(Nc3ccc(N4CCN(CCOCCOCCOCCNC(=O)COc5cccc6c5C(=O)N(C5CCC(=O)NC5=O)C6=O)CC4)cn3)nc2n(C2CCCC2)c1=O [BSJ-03-123]; test: as above
Flavopiridol = compound: CN1CC[C@H](c2c(O)cc(O)c3c(=O)cc(-c4ccccc4Cl)oc23)[C@H](O)C1 [Flavopiridol]; test: as above
[2] = compound: CC(=O)c1c(C)c2cnc(Nc3ccc(N4CCNCC4)cn3)nc2n(C2CCCC2)c1=O; test: as above
YKL-5-124 = compound: C=CC(=O)Nc1ccc(C(=O)Nc2[nH]nc3c2CN(C(=O)N[C@H](CN(C)C)c2ccccc2)C3(C)C)cc1 [YKL-5-124]; test: as above
[3] = compound: CCN1CCN(Cc2ccc(Nc3ncc(F)c(-c4cc(F)c5nc(C)n(C(C)C)c5c4)n3)nc2)CC1; test: as above
Ceritinib/LDK378 = compound: Cc1cc(Nc2ncc(Cl)c(Nc3ccccc3S(=O)(=O)C(C)C)n2)c(OC(C)C)cc1C1CCNCC1 [Ceritinib/LDK378]
Saracatinib/AZD0530 = compound: CN1CCN(CCOc2cc(OC3CCOCC3)c3c(Nc4c(Cl)ccc5c4OCO5)ncnc3c2)CC1 [Saracatinib/AZD0530]
Luminespib/NVP-AUY922 = compound: CCNC(=O)c1noc(-c2cc(C(C)C)c(O)cc2O)c1-c1ccc(CN2CCOCC2)cc1 [Luminespib/NVP-AUY922]
BSJ-01-175 = compound: CN(C)C/C=C/C(=O)Nc1ccc(O[C@@H]2CCC[C@@H](Nc3ncc(Cl)c(-c4c[nH]c5ccccc45)n3)C2)cc1 [BSJ-01-175]
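Wherever GR50, 72 h is given: breast cancer and non-malignant breast epithelial cell lines, Deep Dye Drop or Dye Drop imaging, nine half-log doses, GR normalized to time-zero plates and DMSO-only controls.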

In the case of MDAMB361, the “increase in dead-cell fraction” value (THZ531; 0.0001 µM) is reported as -0.004, the “increase in dead-cell fraction” value (THZ531; 0.0003162 µM) is reported as -0.0021 and the “increase in dead-cell fraction” value (THZ531; 0.001 µM) is reported as 0.0045. For the same cell line, the “increase in dead-cell fraction” value (THZ531; 0.003162 µM) was -0.0062, the “increase in dead-cell fraction” value (THZ531; 0.01 µM) was -0.0039 and the “increase in dead-cell fraction” value (THZ531; 0.03162 µM) was 0.0484. The “increase in dead-cell fraction” value (THZ531; 0.1 µM) was 0.454, the “increase in dead-cell fraction” value (THZ531; 0.3162 µM) was 0.219 and the “increase in dead-cell fraction” value (THZ531; 1 µM) was 0.106. The “increase in dead-cell fraction” value (Neratinib/HKI272; 0.0003162 µM) was 0.0068, the “increase in dead-cell fraction” value (Neratinib/HKI272; 0.001 µM) was 0.0063 and the “increase in dead-cell fraction” value (Neratinib/HKI272; 0.003162 µM) was 0.028. For the same cell line, the “increase in dead-cell fraction” value (Neratinib/HKI272; 0.01 µM) was 0.0198, the “increase in dead-cell fraction” value (Neratinib/HKI272; 0.03162 µM) was 0.0227 and the “increase in dead-cell fraction” value (Neratinib/HKI272; 0.1 µM) was 0.0339. For the same cell line, the “increase in dead-cell fraction” value (Neratinib/HKI272; 0.3162 µM) was 0.0406, the “increase in dead-cell fraction” value (Neratinib/HKI272; 1 µM) was 0.105 and the “increase in dead-cell fraction” value (Neratinib/HKI272; 3.162 µM) was 0.435. For the same cell line, the “increase in dead-cell fraction” value ([1]; 0.0001 µM) was 0.0019, the “increase in dead-cell fraction” value ([1]; 0.0003162 µM) was -0.0027 and the “increase in dead-cell fraction” value ([1]; 0.001 µM) was -0.0041. The “increase in dead-cell fraction” value ([1]; 0.003162 µM) was 0.0003, the “increase in dead-cell fraction” value ([1]; 0.01 µM) was 0.0259 and the “increase in dead-cell fraction” value ([1]; 0.03162 µM) was 0.303. The “increase in dead-cell fraction” value ([1]; 0.1 µM) was 0.148, the “increase in dead-cell fraction” value ([1]; 0.3162 µM) was 0.14 and the “increase in dead-cell fraction” value ([1]; 1 µM) was 0.153. For the same cell line, the “increase in dead-cell fraction” value (THZ1; 0.0001 µM) was -0.0046, the “increase in dead-cell fraction” value (THZ1; 0.0003162 µM) was -0.0085 and the “increase in dead-cell fraction” value (THZ1; 0.001 µM) was -0.0074. The “increase in dead-cell fraction” value (THZ1; 0.003162 µM) was 0.0099, the “increase in dead-cell fraction” value (THZ1; 0.01 µM) was 0.016 and the “increase in dead-cell fraction” value (THZ1; 0.03162 µM) was 0.0299. For the same cell line, the “increase in dead-cell fraction” value (THZ1; 0.1 µM) was 0.166, the “increase in dead-cell fraction” value (THZ1; 0.3162 µM) was 0.246 and the “increase in dead-cell fraction” value (THZ1; 1 µM) was 0.186. The “increase in dead-cell fraction” value (LEE011/Ribociclib; 0.001 µM) was 0.0114, the “increase in dead-cell fraction” value (LEE011/Ribociclib; 0.003162 µM) was 0.0106 and the “increase in dead-cell fraction” value (LEE011/Ribociclib; 0.01 µM) was 0.009. For the same cell line, the “increase in dead-cell fraction” value (LEE011/Ribociclib; 0.03162 µM) was 0.0147, the “increase in dead-cell fraction” value (LEE011/Ribociclib; 0.1 µM) was 0.0129 and the “increase in dead-cell fraction” value (LEE011/Ribociclib; 0.3162 µM) was 0.0218. The “increase in dead-cell fraction” value (LEE011/Ribociclib; 1 µM) was 0.0159, the “increase in dead-cell fraction” value (LEE011/Ribociclib; 3.162 µM) was 0.0012 and the “increase in dead-cell fraction” value (LEE011/Ribociclib; 10 µM) was 0.0018. The “increase in dead-cell fraction” value (BSJ-03-123; 0.001 µM) was 0.0068, the “increase in dead-cell fraction” value (BSJ-03-123; 0.003162 µM) was 0.0047 and the “increase in dead-cell fraction” value (BSJ-03-123; 0.01 µM) was 0.0008. For the same cell line, the “increase in dead-cell fraction” value (BSJ-03-123; 0.03162 µM) was 0.006, the “increase in dead-cell fraction” value (BSJ-03-123; 0.1 µM) was 0.0093 and the “increase in dead-cell fraction” value (BSJ-03-123; 0.3162 µM) was 0.0131. The “increase in dead-cell fraction” value (BSJ-03-123; 1 µM) was 0.0189, the “increase in dead-cell fraction” value (BSJ-03-123; 3.162 µM) was 0.0054 and the “increase in dead-cell fraction” value (BSJ-03-123; 10 µM) was 0.0713. The “increase in dead-cell fraction” value (Flavopiridol; 0.0001 µM) was 0.0029, the “increase in dead-cell fraction” value (Flavopiridol; 0.0003162 µM) was -0.0069 and the “increase in dead-cell fraction” value (Flavopiridol; 0.001 µM) was -0.0039. For the same cell line, the “increase in dead-cell fraction” value (Flavopiridol; 0.003162 µM) was 0.0101, the “increase in dead-cell fraction” value (Flavopiridol; 0.01 µM) was 0.0075 and the “increase in dead-cell fraction” value (Flavopiridol; 0.03162 µM) was 0.0039. For the same cell line, the “increase in dead-cell fraction” value (Flavopiridol; 0.1 µM) was -0.0034, the “increase in dead-cell fraction” value (Flavopiridol; 0.3162 µM) was 0.0273 and the “increase in dead-cell fraction” value (Flavopiridol; 1 µM) was 0.0899. The “increase in dead-cell fraction” value ([2]; 0.0003162 µM) was 0.0032, the “increase in dead-cell fraction” value ([2]; 0.001 µM) was -0.0062 and the “increase in dead-cell fraction” value ([2]; 0.003162 µM) was -0.002. The “increase in dead-cell fraction” value ([2]; 0.01 µM) was 0.0022, the “increase in dead-cell fraction” value ([2]; 0.03162 µM) was 0.0148 and the “increase in dead-cell fraction” value ([2]; 0.1 µM) was 0.0157. The “increase in dead-cell fraction” value ([2]; 0.3162 µM) was 0.0051, the “increase in dead-cell fraction” value ([2]; 1 µM) was 0.0076 and the “increase in dead-cell fraction” value ([2]; 3.162 µM) was 0.0191. The “increase in dead-cell fraction” value (YKL-5-124; 0.001 µM) was 0.0281, the “increase in dead-cell fraction” value (YKL-5-124; 0.003162 µM) was 0.0171 and the “increase in dead-cell fraction” value (YKL-5-124; 0.01 µM) was 0.0264. The “increase in dead-cell fraction” value (YKL-5-124; 0.03162 µM) was 0.0267, the “increase in dead-cell fraction” value (YKL-5-124; 0.1 µM) was 0.0421 and the “increase in dead-cell fraction” value (YKL-5-124; 0.3162 µM) was 0.0191. For the same cell line, the “increase in dead-cell fraction” value (YKL-5-124; 1 µM) was 0.0241, the “increase in dead-cell fraction” value (YKL-5-124; 3.162 µM) was 0.0411 and the “increase in dead-cell fraction” value (YKL-5-124; 10 µM) was 0.371. For the same cell line, the “increase in dead-cell fraction” value ([3]; 0.001 µM) was -0.0026, the “increase in dead-cell fraction” value ([3]; 0.003162 µM) was -0.0006 and the “increase in dead-cell fraction” value ([3]; 0.01 µM) was 0.0107. The “increase in dead-cell fraction” value ([3]; 0.03162 µM) was 0.0026, the “increase in dead-cell fraction” value ([3]; 0.1 µM) was 0.0066 and the “increase in dead-cell fraction” value ([3]; 0.3162 µM) was 0.0052. The “increase in dead-cell fraction” value ([3]; 1 µM) was 0.0161, the “increase in dead-cell fraction” value ([3]; 3.162 µM) was 0.0884 and the “increase in dead-cell fraction” value ([3]; 10 µM) was 0.172. For the same cell line, the “GR50, 72 h” value (Ceritinib/LDK378) was 0.266 µM, the “GR50, 72 h” value (Saracatinib/AZD0530) was 0.426 µM and the “GR50, 72 h” value (Luminespib/NVP-AUY922) was 0.00714 µM. The “GR50, 72 h” value (BSJ-01-175) was 0.00163 µM.
